Results published in publication PMC7569237 (Translational Oncology, 2020).

Assay: Plasma and tumor levels in MIA PaCa-2 tumor-bearing nude mice
Format: in vivo
Conditions: MIA PaCa-2-bearing mice, CPT-11 10 mg/kg iv; SN38 = released from CPT-11

SMILES | Time within which concentrations rapidly decreased in plasma and tumor
CCc1c2c(nc3ccc(OC(=O)N4CCC(N5CCCCC5)CC4)cc13)-c1cc3c(c(=O)n1C2)COC(=O)[C@]3(O)CC [CPT-11, 7-ethyl-10-[4-(1-piperidino)-1-piperidino]carbonyloxycamptothecin] | ≤ 48 h
CCc1c2c(nc3ccc(O)cc13)-c1cc3c(c(=O)n1C2)COC(=O)[C@]3(O)CC [SN38, 7-ethyl-10-hydroxycamptothecin] | ≤ 48 h
